Tests used:
human glucagon receptor [1] = molecular target: T1, human glucagon receptor (Homo sapiens (Human), UniProt P47871); assay: Glucagon cAMP Assay (Cisbio cAMP detection); assay type: cell-based; conditions: CHOK1 cells stably transfected with the human glucagon receptor; block of glucagon induced cAMP production; Kb by modified Cheng-Prusoff equation
human glucagon receptor [2] = molecular target: T1, human glucagon receptor; assay: Human Glucagon SPA Assay (binding of [125I]Glucagon-Cex); conditions: membrane from chem-1 cells stably transfected with the human glucagon receptor, Ki by Cheng-Prusoff equation
Experimental: The Glucagon SPA assay is used to determine the ability of test compounds to block the binding of glucagon-cex to the glucagon receptor. Test compounds are re-suspended and serially diluted in 100% DMSO. 1 μl of test compound at the desired concentrations is spotted into the appropriate wells of 96 well low binding white clear bottom plate (Corning). 1 μl of DMSO is spotted into total binding wells. 1 μl of a known glucagon antagonist at a concentration of 20 μM is added to non specific binding wells. […] All assay ingredients with the exception of test compounds are re-suspended in the following buffer; 50 mM Hepes pH 7.4; 5 mM MgCl2; 1 mM CaCl; 5% glycerol and 0.2% BSA. Following a 6-10 hr incubation at room temperature the amount of hot ligand bound to the cell membranes is determined by reading the plates on a Wallac Trilux radioactive emission detector. Data is analyzed using Pfizer's Data analysis program. IC50 values are then determined from the generated sigmoidal dose response curves. Ki values are calculated using Cheng-Prusoff equation. N is the number of times the compound was assayed.

T1 sequence (P47871 26-477): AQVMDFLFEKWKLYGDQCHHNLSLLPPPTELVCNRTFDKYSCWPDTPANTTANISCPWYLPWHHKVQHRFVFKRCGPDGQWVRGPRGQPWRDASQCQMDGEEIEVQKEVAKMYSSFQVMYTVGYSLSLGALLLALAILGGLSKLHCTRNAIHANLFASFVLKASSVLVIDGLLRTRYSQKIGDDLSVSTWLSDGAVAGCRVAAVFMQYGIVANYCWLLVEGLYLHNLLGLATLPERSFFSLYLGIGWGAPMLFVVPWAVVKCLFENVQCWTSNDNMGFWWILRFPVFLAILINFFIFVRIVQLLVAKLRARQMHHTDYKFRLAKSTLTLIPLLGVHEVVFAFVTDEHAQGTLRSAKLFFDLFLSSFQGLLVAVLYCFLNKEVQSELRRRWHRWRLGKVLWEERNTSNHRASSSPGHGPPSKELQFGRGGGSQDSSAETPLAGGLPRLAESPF

Compound | Kb (human glucagon receptor [1]) [nM] | Ki (human glucagon receptor [2]) [nM]
O=C(O)CCNC(=O)c1ccc([C@H](CCC(F)(F)F)Nc2ccc(-n3cc(C(F)(F)F)cn3)nc2)cc1 (single isomer, unassigned; isomer 1) [Example 172, N-{4-[4,4,4-trifluoro-1-({6-[4-(trifluoromethyl)-1H-pyrazol-1-yl]pyridin-3-yl}amino)butyl]benzoyl}-beta-alanine, Isomer 1] | 59.9 | 8.18
CC1(C)CC([C@H](Nc2ccc(-n3cc(C4CC4)cn3)nc2)c2ccc(C(=O)NCCC(=O)O)cc2)C1 (single isomer, unassigned; isomer 1) [Example 174, N-{-4-[{[6-(4-cyclopropyl-1H-pyrazol-1-yl)pyridin-3-yl]amino}(3,3-dimethylcyclobutyl)methyl]benzoyl}-beta-alanine, Isomer 1] | 252 | 57
CCCC(Nc1ccc(-n2cnc(-c3ccccc3)c2)nc1)c1ccc(C(=O)NCCC(=O)O)cc1 (racemic) [Example 162, (+/−)-3-(4-(1-(6-(4-phenyl-1H-imidazol-1-yl)pyridin-3-ylamino)butyl)benzamido)propanoic acid] | 55.8 | 47.3
CCC[C@@H](Nc1ccc(-n2cc(C(C)(C)C)cn2)nc1)c1ccc(C(=O)NCCC(=O)O)cc1 (single isomer, unassigned) [Example 137, 3-(4-(1-(6-(4-tert-butyl-1H-pyrazol-1-yl)pyridin-3-ylamino)butyl)benzamido)propanoic acid] | 27 | 20.2
CCCC(Oc1ccc(-n2cc3cccc(C)c3n2)cc1)c1ccc(C(=O)NCCC(=O)O)cc1 (stereo not shown) [Example 125, 3-(4-(1-(4-(7-methyl-2H-indazol-2-yl)phenoxy)butyl)benzamido)propanoic acid] | 144 | 98.2
Cc1nn(-c2ccc(N[C@H](c3ccc(C(=O)NCCC(=O)O)cc3)C3CCCC3)cn2)cc1Cl (single isomer, unassigned; isomer 2) [Example 192, 3-(4-((6-(4-chloro-3-methyl-1H-pyrazol-1-yl)pyridin-3-ylamino)(cyclopentyl)methyl)benzamido)propanoic acid, Isomer 2] | 88.5 | 50.3
CCCC(Nc1ccc(-n2cc(-c3ccccc3)cn2)nc1)c1ccc(C(=O)NCCC(=O)O)cc1 (single isomer, unassigned; isomer 1) [Example 160, 3-(4-(1-(6-(4-phenyl-1H-pyrazol-1-yl)pyridine-3-ylamino)butyl)benzamido)propanoic acid, Isomer 1] | 111 | 29
O=C(O)CCNC(=O)c1ccc(C(CC2CC2)Nc2ccc(-n3cc(C(F)(F)F)cn3)nc2)cc1 (racemic) [Example 107, (+/−)-3-(4-(2-cyclopropyl-1-(6-(4-(trifluoromethyl)-1H-pyrazol-1-yl)pyridin-3-ylamino)ethyl)benzamido)propanoic acid] | 252 | 71.6
CC(C)(C)C(Nc1ccc(-n2cnc(C(F)(F)F)c2)nc1)c1ccc(C(=O)NCCC(=O)O)cc1 (racemic) [Example 181, (±)-3-(4-(2,2-dimethyl-1-((6-(4-(trifluoromethyl)-1H-imidazol-1-yl)pyridin-3-yl)amino)propyl)benzamido)propanoic acid] | 195 | 87.2
CCCC(Nc1ccc(-n2cc(C(F)(F)F)cn2)nc1)c1ccc(C(=O)NCCC(=O)O)cc1F (single isomer, unassigned) [Example 110, 3-(3-fluoro-4-(1-(6-(4-(trifluoromethyl)-1H-pyrazol-1-yl)pyridin-3-ylamino)butyl)benzamido)propanoic acid] | 97 | 57.2
CC(C)(C)[C@H](Nc1ccc(-n2cnc(C(F)(F)F)c2)nc1)c1ccc(C(=O)NCCC(=O)O)cc1 (single isomer, unassigned; isomer 2) [Example 183, 3-(4-(2,2-dimethyl-1-((6-(4-(trifluoromethyl)-1H-imidazol-1-yl)pyridin-3-yl)amino)propyl)benzamido)propanoic acid, Isomer 2] | 154 | 53.5
CCCC(Oc1cc(C)c(-n2cc(Cl)cn2)c(C)c1)c1ccc(C(=O)NCCC(=O)O)cc1 (single isomer, unassigned) [Example 145, 3-(4-(1-(4-(4-chloro-1H-pyrazol-1-yl)-3,5-dimethylphenoxy)butyl)benzamido)propanoic acid] | 156 | 93.2

Continued by falling Ki (human glucagon receptor [2]), values first:

Kb (human glucagon receptor [1]) [nM] | Ki (human glucagon receptor [2]) [nM] | Compound
883 | 636 | CC(C)C[C@H](Nc1ccc(C(=O)NCCC(=O)O)cn1)c1ccc(-n2cc(C(F)(F)F)cn2)nc1 (single isomer, unassigned) [Example 142, 3-(6-(3-methyl-1-(6-(4-(trifluoromethyl)-1H-pyrazol-1-yl)pyridin-3-yl)butylamino)nicotinamido)propanoic acid]
978 | 399 | CCCC(Nc1ccc(C(=O)NCCC(=O)O)cn1)c1ccc(-n2cc(C(F)(F)F)cn2)nc1 (stereo not shown) [Example 190, (+\−)-3-(6-(1-(6-(4-(trifluoromethyl)-1H-pyrazol-1-yl)pyridin-3-yl)butylamino)nicotinamido)propanoic acid]
202 | 316 | CCCC(Oc1ccc(-n2cc3c(C)cccc3n2)cc1)c1ccc(C(=O)NCCC(=O)O)cc1 (stereo not shown) [Example 127, 3-(4-(1-(4-(4-methyl-2H-indazol-2-yl)phenoxy)butyl)benzamido)propanoic acid]
212 | 161 | CCCC(Oc1ccc(-n2cc3ccc(C)cc3n2)cc1)c1ccc(C(=O)NCCC(=O)O)cc1 (stereo not shown) [Example 126, 3-(4-(1-(4-(6-methyl-2H-indazol-2-yl)phenoxy)butyl)benzamido)propanoic acid]
423 | 125 | CCCC(Oc1cc(C)c(-n2cc(C(F)(F)F)nn2)c(C)c1)c1ccc(C(=O)NCCC(=O)O)cc1 (stereo not shown) [Example 148, (+\−)-3-(4-(1-(3,5-dimethyl-4-(4-(trifluoromethyl)-1H-1,2,3-triazol-1-yl)phenoxy)butyl)benzamido)propanoic acid]
370 | 109 | CCCC(Oc1cc(C)c(-n2cc3ccccc3n2)c(C)c1)c1ccc(C(=O)NCCC(=O)O)cc1 (stereo not shown) [Example 189, (+\−)-3-(4-(1-(4-(2H-indazol-2-yl)-3,5-dimethylphenoxy)butyl)benzamido)propanoic acid]
313 | 94.9 | CC1(C)CC(C(Oc2cnc(-n3cc(C(F)(F)F)cn3)nc2)c2ccc(C(=O)NCCC(=O)O)cc2)C1 (single isomer, unassigned; isomer 1) [Example 155, 3-(4-((3,3-dimethylcyclobutyl)(2-(4-(trifluoromethyl)-1H-pyrazol-1-yl)pyrimidin-5-yloxy)methyl)benzamido)propanoic acid, Isomer 1]
90.8 | 93 | O=C(O)CCNC(=O)c1ccc(C(Nc2ccc(-n3cnc(C(F)(F)F)c3)nc2)C2CCCC2)cc1 (single isomer, unassigned) [Example 97, 3-(4-(cyclopentyl(6-(4-(trifluoromethyl)-1H-imidazol-1-yl)pyridin-3-ylamino)methyl)benzamido)propanoic acid]
455 | 69.8 | Cc1cc(NC(CC(C)C)c2ccc(C(=O)NCCC(=O)O)cc2)cnc1-n1cc(C(F)(F)F)cn1 (racemic) [Example 105, (+/−)-3-(4-(3-methyl-1-(5-methyl-6-(4-(trifluoromethyl)-1H-pyrazol-1-yl)pyridin-3-ylamino)butyl)benzamido)propanoic acid]
42.7 | 65.9 | Cc1nn(-c2ccc(NC(c3ccc(C(=O)NCCC(=O)O)cc3)C3CCCC3)cn2)cc1Cl (racemic) [Example 163, (+/−)-3-(4-((6-(4-chloro-3-methyl-1H-pyrazol-1-yl)pyridin-3-ylamino)(cyclopentyl)methyl)benzamido)propanoic acid]
150 | 28 | Cc1cc(C(Nc2ccc(C(=O)NCCC(=O)O)cn2)C2CCCC2)cc(C)c1-n1cc(C(F)(F)F)cn1 (single isomer, unassigned; isomer 2) [Example 171, 3-(6-((cyclooentyl(3,5-dimethyl-4-(4-(trifluoromethyl)-1H-pyrazol-1-yl)phenyl)methyl)amino)nicotinamido)propanoic acid, Isomer 2]
9.49 | 25.7 | CCCC(Nc1ccc(-n2cc(-c3ccccc3)cn2)nc1)c1ccc(C(=O)NCCC(=O)O)cc1 (single isomer, unassigned; isomer 2) [Example 161, 3-(4-(1-(6-(4-phenyl-1H-pyrazol-1-yl)pyridine-3-ylamino)butyl)benzamido)propanoic acid, Isomer 2]
227 | 20.2 | Cc1cc(OC(c2ccc(C(=O)NCCC(=O)O)cc2)C2CCC2)cc(C)c1-n1cc(C(F)(F)F)cn1 (racemic) [Example 151, (+/−)-3-(4-(cyclobutyl(3,5-dimethyl-4-(4-(trifluoromethyl)-1H-pyrazol-1-yl)phenoxy)methyl)benzamido)propanoic acid]
40 | 5.75 | Cc1cc(OC(c2ccc(C(=O)NCCC(=O)O)cc2)C2CCC2)cc(C)c1-n1cc(C(F)(F)F)cn1 (single isomer, unassigned) [Example 138, 3-(4-(cyclobutyl(3,5-dimethyl-4-(4-(trifluoromethyl)-1H-pyrazol-1-yl)phenoxy)methyl)benzamido)propanoic acid]
